The source of these data is US5925633A, “3-Substituted-4-oxa-1-azabicyclo [3,2,0]heptan-7-one as cysteine protease inhibitors” (Synphar Laboraties, Inc., priority 1996, dated 1999).

For orientation: IC50 means the concentration that inhibits the measured activity by half.

Assay [1] deals with cathepsin B (Rattus norvegicus, UniProt P00787). The assay can be described thus: In vitro assay procedure for cathepsin B (inhibition). The format is biochemical. The settings on record: rat cathepsin B, pH 5.1, 10 min incubation at room temperature, substrate N-CBZ-Phe-Arg-AMC; read-out: IC50 Cathepsin B.
Method: The compounds of formula I were tested for inhibition of cathepsin B using the known method (A. J. Barret et al., Biochem. J. 1982, 201, 189-198). […] After 10 min of incubation at room temperature, a 20 μl of 5 mM substrate (N-CBZ-Phe-Arg-AMC, dissolved in DMSO) was added to initiate reaction. Reading is followed up for 10 min at the fluoroscan reader (excitation at 380 nm, emission at 460 nm).
Assay [2] concerns the target T1, papain (Carica papaya, UniProt P00784).
T1 sequence (P00784 134-345): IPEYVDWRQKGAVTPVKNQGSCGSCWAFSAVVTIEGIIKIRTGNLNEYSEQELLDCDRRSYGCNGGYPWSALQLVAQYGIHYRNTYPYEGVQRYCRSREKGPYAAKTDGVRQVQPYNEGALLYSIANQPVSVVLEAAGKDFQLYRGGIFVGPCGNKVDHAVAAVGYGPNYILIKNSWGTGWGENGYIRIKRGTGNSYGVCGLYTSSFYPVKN
The assay can be described thus: In vitro assay procedure for papain (inhibition). In kind it is biochemical. To be noted: pH 6.5, 10 min incubation at room temperature, substrate N-CBZ-Pro-Phe-Arg-pNA; read-out: IC50 Papain. The method, then: To a 170 μl of enzyme-buffer mixture (enzyme: papain, diluted to give 30 mOD/min, buffer: 0.2 M potassium phosphate, 1.0 mM EDTA, 5 mM L-Cysteine, pH 6.5) a 10 μL of inhibitor (dissolved in DMSO) was added. After 10 min of incubation at room temperature, a 20 μl of 10 mM substrate (N-CBZ-Pro-Phe-Arg-pNA, dissolved in DMSO) was added to initiate reaction. Reading is followed up for 3 min at the Thermomax plate reader (absorbance at 405 nm)
A plot of percentage of inhibition vs inhibitor concentration is obtained, and IC50 is determined using a linear regression calculations (concentration of inhibitor which will give 50% inhibition).

Bounds are passed on as bounds.

Sequence of cathepsin B (P00787 80-339): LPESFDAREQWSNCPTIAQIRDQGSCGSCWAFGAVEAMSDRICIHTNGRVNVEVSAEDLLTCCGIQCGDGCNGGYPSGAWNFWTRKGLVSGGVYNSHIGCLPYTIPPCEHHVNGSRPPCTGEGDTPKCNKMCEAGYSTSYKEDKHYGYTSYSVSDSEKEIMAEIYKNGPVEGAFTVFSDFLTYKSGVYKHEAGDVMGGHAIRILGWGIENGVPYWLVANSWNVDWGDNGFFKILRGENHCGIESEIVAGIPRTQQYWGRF

Regarding `O=COCCCCCC(=O)NCC1CN2C(=O)CC2O1` (stereo not drawn) [Example 38], the results for the IC50 in assay [1] and in assay [2] were 3.5 µM and 2.2 µM, respectively.

As to `NCC1CN2C(=O)CC2O1` (stereo not drawn) [Example 39], the half-inhibitory concentration (IC50) in assay [1] and in assay [2] was 5.5 µM each time.

Consider `NC(CC(=O)O)C(=O)NCC(=O)NCC1CN2C(=O)CC2O1` (stereo not drawn) [Example 40], for which the values for the IC50 in assay [1] and in assay [2] were 15.9 µM and 8.3 µM, respectively.

In the case of `CC(=O)NCCCCC(NC(C)=O)C(=O)OCC1CN2C(=O)CC2O1` (stereo not drawn) [Example 43], the IC50 was greater than 70 µM in assay [1] and 1.77 µM in assay [2].

On to `CC(=O)OCC1CN2C(=O)CC2O1` (stereo not drawn) [Example 44], for which the results for the IC50 in assay [1] and in assay [2] were 1.1 µM and 0.21 µM, respectively.

In the case of `O=C(CO)NCC1CN2C(=O)CC2O1` (stereo not drawn) [Example 45], the IC50 in assay [1] was determined as 5 µM; in assay [2], 1.69 µM.

`O=C(OCC1CN2C(=O)CC2O1)c1ccc2c(c1)C(=O)c1ccccc1C2=O` (stereo not drawn) [Example 46]: the results for the half-inhibitory concentration (IC50) in assay [1] and in assay [2] were 0.53 µM and 0.021 µM, respectively.

`COc1ccc(C(=O)NCC2CN3C(=O)CC3O2)cc1OC` (stereo not drawn) [Example 47]: the IC50 in assay [1] is 8.8 µM; in assay [2], 0.13 µM.

Turning to `O=C1CC2OC(CSc3ccccc3)CN12` (stereo not drawn) [Example 48], the half-maximal inhibitory concentration (IC50) in assay [1] was found to be 0.42 µM; in assay [2] it was 0.85 µM.

For the compound `NC(Cc1ccccc1)C(=O)NCC1CN2C(=O)CC2O1` (stereo not drawn) [Example 49], the 50% inhibitory concentration (IC50) was found to be 3.08 µM in assay [1] and 0.62 µM in assay [2].

As for `O=C(OCC1CN2C(=O)CC2O1)c1ccc(O)c(O)c1` (stereo not drawn) [Example 50], the values for the half-maximal inhibitory concentration (IC50) in assay [1] and in assay [2] were 0.46 µM and 2.5 µM, respectively.

Regarding `COc1ccc(C(=O)OCC2CN3C(=O)CC3O2)cc1OC` (stereo not drawn) [Example 51], the IC50 in assay [1] is 3.3 µM; in assay [2], 0.13 µM.

For `COc1cc(C(=O)OCC2CN3C(=O)CC3O2)cc(OC)c1O` (stereo not drawn) [Example 52], the IC50 was determined as 3.1 µM in assay [1] and 0.62 µM in assay [2].

`Nc1ccc(C(=O)OCC2CN3C(=O)CC3O2)cc1` (stereo not drawn) [Example 53]: the 50% inhibitory concentration (IC50) turned out to be 3.8 µM in assay [1] and 2.4 µM in assay [2].

Regarding `O=C(OCC1CN2C(=O)CC2O1)c1cc(F)c(F)cc1F` (stereo not drawn) [Example 54], the IC50 in assay [1] is 8.3 µM; in assay [2], 0.66 µM.

Turning to `N#Cc1ccc(C(=O)OCC2CN3C(=O)CC3O2)cc1` (stereo not drawn) [Example 55], the results for the half-maximal inhibitory concentration (IC50) in assay [1] and in assay [2] were 3.7 µM and 0.74 µM, respectively.

For the compound `Cc1ccc(S(=O)(=O)NCC2CN3C(=O)CC3O2)cc1` (stereo not drawn) [Example 56], the IC50 is 0.67 µM in assay [1] and 1.76 µM in assay [2].

With `O=C1CC2OC(CNS(=O)(=O)c3ccc(Cl)cc3)CN12` (stereo not drawn) [Example 57], the concentration for half-maximal inhibition (IC50) in assay [1] and in assay [2] was 0.63 µM each time.

In the case of `O=C(NCC1CN2C(=O)CC2O1)c1ccccc1` (stereo not drawn) [Example 58], the IC50 in assay [1] worked out at 4.1 µM; in assay [2], 0.81 µM.

As for `COc1ccc(S(=O)(=O)NCC2CN3C(=O)CC3O2)cc1` (stereo not drawn) [Example 59], the concentration for half-maximal inhibition (IC50) came to 0.64 µM in assay [1] and 3.2 µM in assay [2].

With `O=C(OCC1CN2C(=O)CC2O1)c1ccccc1` (stereo not drawn) [Example 60], the half-maximal inhibitory concentration (IC50) in assay [1] and in assay [2] was 4 µM throughout.

On to `O=C1CC2OC(CS(=O)(=O)c3ccccc3)CN12` (stereo not drawn) [Example 61], for which the IC50 in assay [1] and in assay [2] was 1.6 µM in each case.

As to `O=C1CC2OC(C[S+]([O-])Cc3ccccc3)CN12` (stereo not drawn) [Example 62], the results for the IC50 in assay [1] and in assay [2] were 8.7 µM and 0.76 µM, respectively.

Take `O=C(O)COc1ccc(C(=O)OCC2CN3C(=O)CC3O2)cc1` (stereo not drawn) [Example 63]: the IC50 in assay [1] amounted to 2 µM; in assay [2], 2.9 µM.

For `O=C(O)c1ccccc1C(=O)OCC1CN2C(=O)CC2O1` (stereo not drawn) [Example 64], the IC50 in assay [1] came out at 6.9 µM; in assay [2], 16 µM.

Turning to `COc1ccc(C(=O)OCC2CN3C(=O)CC3O2)cc1` (stereo not drawn) [Example 65], the results for the half-maximal inhibitory concentration (IC50) in assay [1] and in assay [2] were 8.9 µM and 2 µM, respectively.

As to `O=C(OCC1CN2C(=O)CC2O1)c1ccc(F)cc1` (stereo not drawn) [Example 66], the IC50 stood at 3.8 µM in assay [1] and 2.4 µM in assay [2].

Regarding `O=C(OCC1CN2C(=O)CC2O1)c1ccc(O)cc1` (stereo not drawn) [Example 67], the concentration for half-maximal inhibition (IC50) was 3.8 µM in assay [1] and 2.4 µM in assay [2].

Turning to `COc1ccc(C(=O)NCC2CN3C(=O)CC3O2)cc1` (stereo not drawn) [Example 68], the results for the concentration for half-maximal inhibition (IC50) in assay [1] and in assay [2] were 3.6 µM and 0.72 µM, respectively.

With `O=C(NC(CO)C(=O)OCC1CN2C(=O)CC2O1)OCc1ccccc1` (stereo not drawn) [Example 69], the figures for the concentration for half-maximal inhibition (IC50) in assay [1] and in assay [2] were 2.7 µM and 1.5 µM, respectively.

On to `O=C(CNC(=O)OCc1ccccc1)NCC(=O)OCC1CN2C(=O)CC2O1` (stereo not drawn) [Example 70], for which the concentration for half-maximal inhibition (IC50) is 6.7 µM in assay [1] and 0.35 µM in assay [2].

Regarding `O=C(NC(c1ccccc1)C(O)C(=O)OCC1CN2C(=O)CC2O1)c1ccccc1` (stereo not drawn) [Example 71], the IC50 in assay [1] and in assay [2] was 0.24 µM each time.

Take `O=C1CC(OCC2CN3C(=O)CC3O2)N1` (stereo not drawn) [Example 73]: the half-inhibitory concentration (IC50) was 4.7 µM in assay [1] and 2.4 µM in assay [2].

Consider `O=C(CCCCCCn1ccnn1)NCC1CN2C(=O)CC2O1` (stereo not drawn) [Example 74], for which the values for the IC50 in assay [1] and in assay [2] were 6.5 µM and 3.3 µM, respectively.

For `O=C(NCC1CN2C(=O)CC2O1)C1CCCCC1` (stereo not drawn) [Example 75], the IC50 in assay [1] stood at 0.36 µM; in assay [2], 3.97 µM.

Consider `O=C(O)C1CCCCC1C(=O)OCC1CN2C(=O)CC2O1` (stereo not drawn) [Example 76], for which the concentration for half-maximal inhibition (IC50) turned out to be 0.34 µM in assay [1] and 10.9 µM in assay [2].
